# Laboratory results: PubChem BioAssay AID1963439 (Molecular Pharmacology Branch, DTP, NCI, 2024)
# “And” between values parts separate entries of the source, which are not always exact repeats. Equal entries are not always repeated.
# Tested on: NCI-H196 complex spheroids with HUVEC/MSC, growth % T/C
# Assay: Anticancer human tumor NCI-H196 cell line growth inhibition [Asc];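 note: spheroids exposed to compound for 7 days before measurement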;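 for viability, T/C: 100% = DMSO vehicle control wells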
# Details: for viability, T/C: stronger effect = lower value
# Procedure: Multicellular complex tumor spheroid response to apoptosis pathway targeting inhibitors Alrizomadlin, Pelcitoclax, and Dasminapant in combination with a variety of drugs and investigational agents in selected tumor cell lines
# The MDM2 inhibitor alrizomadlin, the Bcl-2/Bcl-xL inhibitor pelcitoclax, and the IAPs inhibitor dasminapant were evaluated both individually and in combination with standard of care and investigational anticancer small molecules within a complex spheroid model of solid tumors. . Complex spheroids include a stromal component modeled by human endothelial cells (HUVEC) and fibroblasts modeled by human mesenchymal stem cells (MSCs). The concentration ranges selected for each drug and investigational agent were based upon clinically achievable concentrations if the clinical Cmax of the agent was known.
# Compounds. The drugs and investigational agents: alrizomadlin (APG-115; NSC831270), pelcitoclax (APG-1252; NSC835773), dasminapant (APG-1387;NSC834197), TAK-243 (NSC785004), copanlisib (NSC809693), olaparib (NSC753686), talazoparib (NSC767125), cobimetinib (NSC 768068), eltanexor (KPT-8602, NSC 794443), abemaciclib (NSC 768073), sotorasib (NSC818433), adagrasib (NSC 831453), MRTX-1133 (NSC 836407), Iadademestat (ORY1001, NSC 806812), and RMC-4630 (NSC839698), were obtained from the NCI Developmental Therapeutics Program Chemical Repository. The FDA-approved anticancer drug set is available from the Developmental Therapeutics Program at https://dtp.cancer.gov/organization/dscb/obtaining/available plates.htm. […] The stock solutions were prepared in dimethyl sulfoxide (DMSO, Sigma-Aldrich, St. Louis, MO, cat. D2650) at 800-fold the tested concentration and stored at -70 degrees C prior to their use. All drugs and investigational agents were tested over a range starting from a high concentration at or near the clinical Cmax and decreasing in half-log increments. If the clinical Cmax for an agent had not been determined, the highest concentration tested was 10 microM.
# The patient-derived cancer (PDC) cell lines include five colon adenocarcinomas: 186277-243-T-J2-PDC, 616215-338-R-J1-PDC, 439559-082-T-J2-PDC, 463943-066-T-J2-PDC, and 519858-162-T-J1-PDC; three pancreatic carcinomas: 323965-272-R-J2-PDC, 521955-158-R6-J3-PDC, and 521955-158-R2-J5-PDC; two uterine sarcomas: 327498-152-R-J2-PDC and 993429-296-R-J1-PDC; two rhabdomyosarcomas: 755483-174-R-J1-PDC and 772245-204-R-J1-PDC; two soft tissue sarcomas: 126254-015-R-J1-PDC and 494315-158-R-J1-PDC; two malignant fibrous histiocytomas: 317291-083-R-J1-PDC and 596521-263-R-J1-PDC; two breast carcinomas: 171881-019-R-J1-PDC and 885512-296-R-J2-PDC; and one ovarian carcinoma: 6556581-035-R-J-PDC were obtained from the NCI PDMR, (https://pdmr.cancer.gov). The established cell lines HSSY-2 synovial sarcoma (RRID:CVCL 8719), SYO-1 synovial sarcoma (RRID:CVCL_7146), MPNST malignant peripheral neural sheath tumor were obtained from the Sloan Kettering Institute. The following established cell lines were purchased from the American Type Culture Collection (ATCC, Manassas, VA), Sor the received from the NCI repository:, PANC-1 pancreatic carcinoma (CRL-1469, RRID:CVCL_0480), OVCAR-5 ovarian carcinoma (RRID:CVCL_1628), OVCAR-8 ovarian carcinoma (RRID:CVCL_1629), , MCF-7 breast carcinoma (CRL-12584, RRID:CVCL_0031), MDA-MB-231 breast carcinoma (CRL-12532, RRID:CVCL_0062), NCI-H1876 small cell lung carcinoma (CRL-5902, RRID:CVCL_1503), NCI-H510A small cell lung carcinoma (HTB-184, RRID:CVCL_1565), NCI-H1417 (CRL-5869, RRID:CVCL_1469), and NCI-H196 small cell lung carcinoma (CRL-5823, RRID:CVCL_1509). Dr. Peter Houghton (Greehey Children's Cancer Research Institute, University of Texas Health Science Center, San Antonio, TX) provided Rh-18 rhabdomyosarcoma (RRID:CVCL_1659). Pooled donor human umbilical vein endothelial cells (HUVEC, Lonza, cat. CC-2519) and human mesenchymal stem cells (hMSC, Lonza, cat. PT-2501) were purchased from Lonza (Walkersville, MD).
# Cell Culture. […]
smiles,measurement,setting,value
C#Cc1c(F)ccc2cc(O)cc(-c3ncc4c(N5CC6CCC(C5)N6)nc(OCC56CCCN5CC(F)C6)nc4c3F)c12 (configuration not stated),"viability, T/C",compound 0.0316 µM,94.6% and 101% and 103%
same,"viability, T/C",compound 0.1 µM,93.4% and 95.6% and 109%
same,"viability, T/C",compound 0.316 µM,93.4% and 92.8% and 118%
same,"viability, T/C",compound 1 µM,102% and 100% and 113%
same,"viability, T/C",compound 3.16 µM,101% and 92.6% and 108%
same,"viability, T/C",compound 10 µM,105% and 92.6% and 104%
same,IC50,curve of compound,> 10 µM
C#Cc1c(F)ccc2cc(O)cc(-c3ncc4c(N5CC6CCC(C5)N6)nc(OCC56CCCN5CC(F)C6)nc4c3F)c12 (configuration not stated) + CCN1C(C(=O)NC23CCC(C(=O)O)(CC2)CC3)C(c2cccc(Cl)c2F)C2(C(=O)Nc3cc(Cl)ccc32)C12CCCCC2,IC50,"curve of first compound, second compound 0.03 µM",> 10 µM
same,IC50,"curve of first compound, second compound 0.0949 µM",> 10 µM
same,IC50,"curve of first compound, second compound 0.3 µM",> 10 µM
same,IC50,"curve of first compound, second compound 0.949 µM",> 10 µM
same,IC50,"curve of first compound, second compound 3 µM",> 10 µM
same,"viability, T/C","second compound 0.03 µM, first compound 0.0316 µM",96.4%
same,"viability, T/C","second compound 0.03 µM, first compound 0.1 µM",102%
same,"viability, T/C","second compound 0.03 µM, first compound 0.316 µM",97.6%
same,"viability, T/C","second compound 0.03 µM, first compound 1 µM",101%
same,"viability, T/C","second compound 0.03 µM, first compound 3.16 µM",88.7%
same,"viability, T/C","second compound 0.03 µM, first compound 10 µM",104%
same,"viability, T/C","second compound 0.0949 µM, first compound 0.0316 µM",102%
same,"viability, T/C","second compound 0.0949 µM, first compound 0.1 µM",110%
same,"viability, T/C","second compound 0.0949 µM, first compound 0.316 µM",106%
same,"viability, T/C","second compound 0.0949 µM, first compound 1 µM",95.8%
same,"viability, T/C","second compound 0.0949 µM, first compound 3.16 µM",110%
same,"viability, T/C","second compound 0.0949 µM, first compound 10 µM",97.4%
same,"viability, T/C","second compound 0.3 µM, first compound 0.0316 µM",109%
same,"viability, T/C","second compound 0.3 µM, first compound 0.1 µM",108%
same,"viability, T/C","second compound 0.3 µM, first compound 0.316 µM",117%
same,"viability, T/C","second compound 0.3 µM, first compound 1 µM",96.9%
same,"viability, T/C","second compound 0.3 µM, first compound 3.16 µM",97.5%
same,"viability, T/C","second compound 0.3 µM, first compound 10 µM",99%
same,"viability, T/C","second compound 0.949 µM, first compound 0.0316 µM",123%
same,"viability, T/C","second compound 0.949 µM, first compound 0.1 µM",123%
same,"viability, T/C","second compound 0.949 µM, first compound 0.316 µM",115%
same,"viability, T/C","second compound 0.949 µM, first compound 1 µM",93%
same,"viability, T/C","second compound 0.949 µM, first compound 3.16 µM",115%
same,"viability, T/C","second compound 0.949 µM, first compound 10 µM",103%
same,"viability, T/C","second compound 3 µM, first compound 0.0316 µM",118%
same,"viability, T/C","second compound 3 µM, first compound 0.1 µM",123%
same,"viability, T/C","second compound 3 µM, first compound 0.316 µM",129%
same,"viability, T/C","second compound 3 µM, first compound 1 µM",114%
same,"viability, T/C","second compound 3 µM, first compound 3.16 µM",108%
same,"viability, T/C","second compound 3 µM, first compound 10 µM",114%
NC(=O)C(=Cn1cnc(-c2cc(C(F)(F)F)cc(C(F)(F)F)c2)n1)c1cncnc1 + CNC(C)C(=O)NC1CN(S(=O)(=O)c2cccc(S(=O)(=O)N3CCC4CCC(C(=O)NC(c5ccccc5)c5ccccc5)N4C(=O)C(NC(=O)C(C)NC)C3)c2)CCC2CCC(C(=O)NC(c3ccccc3)c3ccccc3)N2C1=O,IC50,"curve of first compound, second compound 0.01 µM",< 0.000949 µM
same,IC50,"curve of first compound, second compound 0.0316 µM",< 0.000949 µM
same,IC50,"curve of first compound, second compound 0.1 µM",< 0.000949 µM
same,IC50,"curve of first compound, second compound 0.316 µM",< 0.000949 µM
same,IC50,"curve of first compound, second compound 1 µM",< 0.000949 µM
same,"viability, T/C","second compound 0.01 µM, first compound 0.000949 µM",9.08%
same,"viability, T/C","second compound 0.01 µM, first compound 0.003 µM",6.89%
same,"viability, T/C","second compound 0.01 µM, first compound 0.00949 µM",9.23%
same,"viability, T/C","second compound 0.01 µM, first compound 0.03 µM",5%
same,"viability, T/C","second compound 0.01 µM, first compound 0.0949 µM",6.27%
same,"viability, T/C","second compound 0.01 µM, first compound 0.3 µM",3.41%
same,"viability, T/C","second compound 0.0316 µM, first compound 0.000949 µM",5.94%
same,"viability, T/C","second compound 0.0316 µM, first compound 0.003 µM",4.91%
same,"viability, T/C","second compound 0.0316 µM, first compound 0.00949 µM",5.48%
same,"viability, T/C","second compound 0.0316 µM, first compound 0.03 µM",5.12%
same,"viability, T/C","second compound 0.0316 µM, first compound 0.0949 µM",4.08%
same,"viability, T/C","second compound 0.0316 µM, first compound 0.3 µM",1.99%
same,"viability, T/C","second compound 0.1 µM, first compound 0.000949 µM",3.66%
same,"viability, T/C","second compound 0.1 µM, first compound 0.003 µM",3.77%
same,"viability, T/C","second compound 0.1 µM, first compound 0.00949 µM",3.89%
same,"viability, T/C","second compound 0.1 µM, first compound 0.03 µM",4.03%
same,"viability, T/C","second compound 0.1 µM, first compound 0.0949 µM",3.01%
same,"viability, T/C","second compound 0.1 µM, first compound 0.3 µM",1.56%
same,"viability, T/C","second compound 0.316 µM, first compound 0.000949 µM",3.76%
same,"viability, T/C","second compound 0.316 µM, first compound 0.003 µM",2.6%
same,"viability, T/C","second compound 0.316 µM, first compound 0.00949 µM",3.46%
same,"viability, T/C","second compound 0.316 µM, first compound 0.03 µM",3.21%
same,"viability, T/C","second compound 0.316 µM, first compound 0.0949 µM",1.59%
same,"viability, T/C","second compound 0.316 µM, first compound 0.3 µM",1.68%
same,"viability, T/C","second compound 1 µM, first compound 0.000949 µM",2.91%
same,"viability, T/C","second compound 1 µM, first compound 0.003 µM",3.81%
same,"viability, T/C","second compound 1 µM, first compound 0.00949 µM",3.53%
same,"viability, T/C","second compound 1 µM, first compound 0.03 µM",5.05%
same,"viability, T/C","second compound 1 µM, first compound 0.0949 µM",2.15%
same,"viability, T/C","second compound 1 µM, first compound 0.3 µM",1.55%
